From patent US4181803A, “Propiophenone derivatives and preparation thereof” (Eisai Co., Ltd., priority 1973, dated 1980) come the findings set out here.

Data set [1] has as its system motor function and maintenance of righting reflex. In words: animal or person. Type of data set: in vivo, male d,d-strain mice. The conditions noted are these: Mus musculus, po, 1 h, read-out: Motor Ataxia, ED50. On the procedure: (§1) Male d,d-strain mice weighing 18 to 22 grs. were used for the experiments.
(§2) Groups of each 10 mice were treated orally and intraperitoneally with a wide range of doses of the above-mentioned compounds or saline.
The numerals given in the following Table 1 indicate ED50 values (in mg/kg) which were calculated 60 minutes after the oral administration of the compounds under test.

For data set [2], the system named is mice. Kind of data set: Acute toxicity (24-hour mortality). Type of data set: in vivo. The note with it: oral, from Table 1. On the procedure:
as §1, §2
The mortality ensued during 24 hours after the oral administration was recorded to determine acute toxicity of the compound under test on the mice.

Data set [3] concerns isolated smooth muscle preparations. In words: Smooth muscle-relaxing activity on isolated smooth muscle preparations. An excerpt:
Additionally, anti-histamine, anti-acetylcholine, anti-serotonin and smooth muscle-relaxing activities of the compounds under test were examined on isolated smooth muscle preparations

One may read the ED50 as the dose that gives a 50% effect, or the effect in half of the subjects. Consider `CCCc1ccc(C(=O)C(C)CN2CCCCC2)cc1.Cl` (stereo not shown) [Compound B, 4'-n-propyl-2-methyl-3-piperidino-propiophenone hydrochloride], for which the ED50 in data set [1] amounted to 800 mg/kg. Further, the “acute toxicity compared with Compound under control (in words)” value in data set [2] was “almost equivalent”. Further, the “smooth muscle-relaxant activity (in words)” value in data set [3] is listed as “strong”.
`Cc1ccc(C(=O)C(C)CN2CCCCC2)cc1.Cl` (stereo not shown) [Compound for control, 2,4'-dimethyl-3-piperidino-propiophenone hydrochloride, reference compound]: the ED50 in data set [1] is 800 mg/kg. In data set [3], the “smooth muscle-relaxant activity (in words)” value is listed as “weak”.
On to `CCc1ccc(C(=O)C(C)CN2CCCCC2)cc1.Cl` (stereo not shown) [Compound A, 4'-ethyl-2-methyl-3-piperidino-propiophenone hydrochloride], for which the ED50 in data set [1] was 640 mg/kg. Moreover, the “acute toxicity compared with Compound under control (in words)” value in data set [2] was “slightly stronger”. The “smooth muscle-relaxant activity (in words)” value in data set [3] is recorded as “strong”.
In the case of `CC(CN1CCCCC1)C(=O)c1ccc(C(C)C)cc1.Cl` (stereo not shown) [Compound C, 4'-isopropyl-2-methyl-3-piperidino-propiophenone hydrochloride], in data set [1], the ED50 stood at 84 mg/kg. For the same molecule, in data set [3], the “smooth muscle-relaxant activity (in words)” value is given as “strong”.
